Test results published in EP2951180B1, “2,6,7,8 SUBSTITUTED PURINES AS HDM2 INHIBITORS” (Merck Sharp & Dohme Corp., priority 2013, dated 2014).

Each molecule was assayed against T1, HDM2 (Homo sapiens, UniProt Q00987) (assay: FRET assay (HDM2 inhibition; method not described in this part)). Conditions: Table 1.
T1 construct: Thioredoxin (N); made in house; host or cells: E. coli strain BL21(DE3)Rosetta
T1 sequence (Q00987 17-125): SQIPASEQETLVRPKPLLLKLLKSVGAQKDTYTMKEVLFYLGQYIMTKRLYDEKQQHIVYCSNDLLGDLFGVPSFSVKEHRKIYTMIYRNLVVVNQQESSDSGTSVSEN
Type: binding
Molecule `C[C@@H](Nc1nc(C(=O)O)nc2nc(-c3ncccc3C(F)(F)F)n(Cc3ccc(C(F)(F)F)cc3)c12)C1CCC1` [Example 1.135, 6-{[(1R)-1-cyclobutylethyl]amino}-7-[4-(trifluoromethyl)benzyl]-8-[3-(trifluoromethyl)pyridin-2-yl]-7H-purine-2-carboxylic acid] has an IC50 of 47.9 nM.
`COc1ccc(-c2nc3nc(C(=O)O)nc(N[C@H](C)C4CCC4)c3n2Cc2ccc(C(F)(F)F)cc2)c(F)c1` [Example 1.136, 6-{[(1R)-1-cyclobutylethyl]amino}-8-(2-fluoro-4-methoxyphenyl)-7-[4-(trifluoromethyl)benzyl]-7H-purine-2-carboxylic acid] gave an IC50 of 125 nM.
`Cc1cc(-c2nc3nc(C(=O)O)nc(N[C@H](C)C4CCC4)c3n2Cc2ccc(C(F)(F)F)cc2)ccc1F` [Example 1.137, 6-{[(1R)-1-cyclobutylethyl]amino}-8-(4-fluoro-3-methylphenyl)-7-[4-(trifluoromethyl)benzyl]-7H-purine-2-carboxylic acid] showed an IC50 of 49.7 nM.
With `CCOc1ccc(C)cc1-c1nc2nc(C(=O)O)nc(N[C@H](C)C3CCC3)c2n1Cc1ccc(C(F)(F)F)cc1` [Example 1.138, 6-{[(1R)-1-cyclobutylethyl]amino}-8-(2-ethoxy-5-methylphenyl)-7-[4-(trifluoromethyl)benzyl]-7H-purine-2-carboxylic acid] the IC50 was 15.8 nM.

Same assay, conditions: Table 2
With `COc1cccc(-c2nc3nc(C(=O)O)nc(N[C@H](C)C4CCC4)c3n2Cc2ccc(C(F)(F)F)cc2)c1` [Example 2.1, (R)-6-((1-cyclobutylethyl)amino)-8-(3-methoxyphenyl)-7-(4-(trifluoromethyl)benzyl)-7H-purine-2-carboxylic acid] the IC50 was 37.5 nM.
Molecule `Cc1cc(C2CC2)ccc1-c1nc2nc(C(=O)O)nc(N[C@H](C)C3CCC3)c2n1Cc1ccc(C(F)(F)F)cc1` [Example 2.2, (R)-6-((1-cyclobutylethyl)amino)-8-(4-cyclopropyl-2-methylphenyl)-7-(4-(trifluoromethyl)benzyl)-7H-purine-2-carboxylic acid] has an IC50 of 151 nM.
`C[C@@H](Nc1nc(C(=O)O)nc2nc(Cc3ccccc3)n(Cc3ccc(C(F)(F)F)cc3)c12)C1CCC1` [Example 2.3, (R)-8-benzyl-6-((1-cyclobutylethyl)amino)-7-(4-(trifluoromethyl)benzyl)-7H-purine-2-carboxylic acid] showed an IC50 of 3.66 nM.
Work on `C[C@@H](Nc1nc(C(=O)O)nc2nc(C3CCCCC3)n(Cc3ccc(C(F)(F)F)cc3)c12)C1CCC1` [Example 2.4, (R)-6-((1-cyclobutylethyl)amino)-8-cyclohexyl-7-(4-(trifluoromethyl)benzyl)-7H-purine-2-carboxylic acid] yielded an IC50 of 11.5 nM.
For `C[C@@H](Nc1nc(C(=O)O)nc2nc(-c3cccc(Cl)c3)n(Cc3ccc(Cl)cc3)c12)C1CC1` [Example 2.5, 7-(4-chlorobenzyl)-8-(3-chlorophenyl)-6-{[(1R)-1-cyclopropylethyl]amino}-7H-purine-2-carboxylic acid], the IC50 was 218 nM.
Molecule `Cc1cccc(-c2nc3nc(C(=O)O)nc(N[C@H](C)C4CC4)c3n2Cc2ccc(Cl)cc2)c1` [Example 2.6, 7-(4-chlorobenzyl)-6-{[(1R)-1-cyclopropylethyl]amino}-8-(3-methylphenyl)-7H-purine-2-carboxylic acid] has an IC50 of 209 nM.
In the case of `C[C@@H](Nc1nc(C(=O)O)nc2nc(-c3ccc4sccc4c3)n(Cc3ccc(Cl)cc3)c12)C1CC1` [Example 2.7, 8-(1-benzothiophen-5-yl)-7-(4-chlorobenzyl)-6-{[(1R)-1-cyclopropylethyl]amino}-7H-purine-2-carboxylic acid], the IC50 is reported as 259 nM.
In the case of `Cc1cccc(-c2nc3nc(C(=O)O)nc(N[C@H](C)C4CC4)c3n2Cc2ccc(C(F)(F)F)cc2)c1` [Example 2.8, 6-{[(1R)-1-cyclopropylethyl]amino}-8-(3-methylphenyl)-7-[4-(trifluoromethyl)benzyl]-7H-purine-2-carboxylic acid], the IC50 is reported as 28.4 nM.
With `C[C@@H](Nc1nc(C(=O)O)nc2nc(-c3ccc(Cl)cc3)n(Cc3ccc(Cl)cc3)c12)C1CC1` [Example 2.9, 7-(4-chlorobenzyl)-8-(4-chlorophenyl)-6-{[(1R)-1-cyclopropylethyl]amino}-7H-purine-2-carboxylic acid] the IC50 was 43.8 nM.
`C[C@@H](Nc1nc(C(=O)O)nc2nc(-c3ccc4sccc4c3)n(Cc3ccc(Cl)cc3)c12)C1CCC1` [Example 2.10, 8-(1-benzothiophen-5-yl)-7-(4-chlorobenzyl)-6-{[(1R)-1-cyclobutylethyl]amino}-7H-purine-2-carboxylic acid] gave an IC50 of 7.2 nM.
In the case of `Cc1cccc(-c2nc3nc(C(=O)O)nc(N[C@H](C)C4CCC4)c3n2Cc2ccc(C(F)(F)F)cc2)c1` [Example 2.11, 6-{[(1R)-1-cyclobutylethyl]amino}-8-(3-methylphenyl)-7-[4-(trifluoromethyl)benzyl]-7H-purine-2-carboxylic acid], the IC50 is reported as 36.6 nM.
Molecule `Cc1ccc(C)c(-c2nc3nc(C(=O)O)nc(N[C@H](C)C4CC4)c3n2Cc2ccc(Cl)cc2)c1` [Example 2.12, 7-(4-chlorobenzyl)-6-{[(1R)-1-cyclopropylethyl]amino}-8-(2,5-dimethylphenyl)-7H-purine-2-carboxylic acid] has an IC50 of 199 nM.
`Cc1cc(-c2nc3nc(C(=O)O)nc(N[C@H](C)C4CC4)c3n2Cc2ccc(Cl)cc2)ccc1F` [Example 2.13, 7-(4-chlorobenzyl)-6-{[(1R)-1-cyclopropylethyl]amino}-8-(4-fluoro-3-methylphenyl)-7H-purine-2-carboxylic acid] showed an IC50 of 40.4 nM.
`COc1cccc(-c2nc3nc(C(=O)O)nc(N[C@H](C)C4CC4)c3n2Cc2ccc(C(F)(F)F)cc2)c1` [Example 2.14, 6-{[(1R)-1-cyclopropylethyl]amino}-8-(3-methoxyphenyl)-7-[4-(trifluoromethyl)benzyl]-7H-purine-2-carboxylic acid] showed an IC50 of 339 nM.
`CCOc1cccc(-c2nc3nc(C(=O)O)nc(N[C@H](C)C4CC4)c3n2Cc2ccc(C(F)(F)F)cc2)c1` [Example 2.15, 6-{[(1R)-1-cyclopropylethyl]amino}-8-(3-ethoxyphenyl)-7-[4-(trifluoromethyl)benzyl]-7H-purine-2-carboxylic acid] was tested, and the IC50 was 304 nM.
For `CCc1cccc(-c2nc3nc(C(=O)O)nc(N[C@H](C)C4CC4)c3n2Cc2ccc(C(F)(F)F)cc2)c1` [Example 2.16, 6-{[(1R)-1-cyclopropylethyl]amino}-8-(3-ethylphenyl)-7-[4-(trifluoromethyl)benzyl]-7H-purine-2-carboxylic acid], the IC50 was 180 nM.
`CCOc1cccc(-c2nc3nc(C(=O)O)nc(N[C@H](C)C4CCC4)c3n2Cc2ccc(C(F)(F)F)cc2)c1` [Example 2.17, 6-{[(1R)-1-cyclobutylethyl]amino}-8-(3-ethoxyphenyl)-7-[4-(trifluoromethyl)benzyl] -7H-purine-2-carboxylic acid] gave an IC50 of 40.2 nM.
With `CC(C)c1cccc(-c2nc3nc(C(=O)O)nc(N[C@H](C)C4CC4)c3n2Cc2ccc(C(F)(F)F)cc2)c1` [Example 2.18, 6-{[(1R)-1-cyclopropylethyl]amino}-8-[3-(1-methylethyl)phenyl]-7-[4-(trifluoromethyl)benzyl]-7H-purine-2-carboxylic acid] the IC50 was 123 nM.
For `C[C@@H](Nc1nc(C(=O)O)nc2nc(-c3cccc(C(C)(C)C)c3)n(Cc3ccc(C(F)(F)F)cc3)c12)C1CC1` [Example 2.19, 8-(3-tert-butylphenyl)-6-{[(1R)-1-cyclopropylethyl]amino}-7-[4-(trifluoromethyl)benzyl]-7H-purine-2-carboxylic acid], the IC50 was 145 nM.
For `C[C@@H](Nc1nc(C(=O)O)nc2nc(-c3ccc(C(F)(F)F)cc3)n(Cc3ccc(C(F)(F)F)cc3)c12)C1CC1` [Example 2.20, 6-{[(1R)-1-cyclopropylethyl]amino}-7-[4-(trifluoromethyl)benzyl]-8-[4-(trifluoromethyl)phenyl]-7H-purine-2-carboxylic acid], the IC50 was 1410 nM.
`COc1ccc(-c2nc3nc(C(=O)O)nc(N[C@H](C)C4CC4)c3n2Cc2ccc(C(F)(F)F)cc2)cc1` [Example 2.21, 6-{[(1R)-1-cyclopropylethyl]amino}-8-(4-methoxyphenyl)-7-[4-(trifluoromethyl)benzyl]-7H-purine-2-carboxylic acid] gave an IC50 of 253 nM.
With `C[C@@H](Nc1nc(C(=O)O)nc2nc(-c3cccc(Cl)c3)n(Cc3ccc(C(F)(F)F)cc3)c12)C1CC1` [Example 2.22, 8-(3-chlorophenyl)-6-{[(1R)-1-cyclopropylethyl]amino}-7-[4-(trifluoromethyl)benzyl]-7H-purine-2-carboxylic acid] the IC50 was 124 nM.
With `CCc1cccc(-c2nc3nc(C(=O)O)nc(N[C@H](C)C4CCC4)c3n2Cc2ccc(C(F)(F)F)cc2)c1` [Example 2.23, 6-{[(1R)-1-cyclobutylethyl]amino}-8-(3-ethylphenyl)-7-[4-(trifluoromethyl)benzyl]-7H-purine-2-carboxylic acid] the IC50 was 16.7 nM.
`CC(C)c1cccc(-c2nc3nc(C(=O)O)nc(N[C@H](C)C4CCC4)c3n2Cc2ccc(C(F)(F)F)cc2)c1` [Example 2.24, 6-{[(1R)-1-cyclobutylethyl]amino}-8-[3-(1-methylethyl)phenyl]-7-[4-(trifluoromethyl)benzyl]-7H-purine-2-carboxylic acid] was tested, and the IC50 was 14.7 nM.
With `C[C@@H](Nc1nc(C(=O)O)nc2nc(-c3cccc(C(C)(C)C)c3)n(Cc3ccc(C(F)(F)F)cc3)c12)C1CCC1` [Example 2.25, 8-(3-tert-butylphenyl)-6-{[(1R)-1-cyclobutylethyl]amino}-7-[4-(trifluoromethyl)benzyl]-7H-purine-2-carboxylic acid] the IC50 was 59.1 nM.
Work on `C[C@@H](Nc1nc(C(=O)O)nc2nc(-c3cccc(OC(F)(F)F)c3)n(Cc3ccc(C(F)(F)F)cc3)c12)C1CC1` [Example 2.26, 6-{[(1R)-1-cyclopropylethyl]amino}-8-[3-(trifluoromethoxy)phenyl]-7-[4-(trifluoromethyl)benzyl]-7H-purine-2-carboxylic acid] yielded an IC50 of 550 nM.
Molecule `C[C@@H](Nc1nc(C(=O)O)nc2nc(-c3ccc(OC(F)(F)F)cc3)n(Cc3ccc(C(F)(F)F)cc3)c12)C1CC1` [Example 2.27, 6-{[(1R)-1-cyclopropylethyl]amino}-8-[4-(trifluoromethoxy)phenyl]-7-[4-(trifluoromethyl)benzyl]-7H-purine-2-carboxylic acid] has an IC50 of 1140 nM.
